In the RepoRT retention time repository (doi:10.1016/j.foodchem.2021.129757) one finds LC retention time data, which are given here for 15 compounds.

A short description of one data set: RP, Merck LiChrospher RP-18, 250 × 4 mm, 5 µm, 35 °C, 0.3 mL/min, estimated dead time 6.7 min; A: water + 0.5% formic acid; B: acetonitrile + 0.5% formic acid; gradient (min/%B) 0/5 10/5 30/15 45/20 65/20 95/54 110/63 115/5 135/5. To be noted: stereoisomer not certain.
For `O=C(O)/C=C/c1cccc(O)c1` [m-Coumaric acid], the LC retention time was 63.4 min.

With `O=C1CC(c2ccc(O)cc2)Oc2cc(O)cc(O)c21` (configuration not stated) [Naringenin], the LC retention time was 95.6 min.

For `OCC1OC(Oc2cc3c(O)cc(O)cc3[o+]c2-c2ccc(O)c(O)c2)C(O)C(O)C1O` (configuration not stated) [Cyanidin 3-O-glucoside], the LC retention time is 49 min.

In the case of `CCC=CCC1C(=O)CCC1CC(=O)O` (configuration not stated) [Jasmonic Acid], the LC retention time was 96.2 min.

With `O=c1c(O)c(-c2ccc(OC3OC(CO)C(O)C(O)C3O)c(O)c2)oc2cc(O)cc(O)c12` (configuration not stated) [Quercetin 4-O-glucoside], the LC retention time was 78 min.

Turning to `O=Cc1ccc(CO)o1` [5-Hydroxymethylfurfural], the LC retention time is 24.2 min.

As to `CCOC(=O)c1cc(O)c(O)c(O)c1` [Ethyl Gallate], the LC retention time is 53.9 min.

Another data set in a line: RP, Waters ACQUITY UPLC HSS T3, 100 × 2.1 mm, 1.8 µm, 30 °C, 0.4 mL/min, estimated dead time 0.55 min; A: water + 0.1% formic acid, pH 3; B: acetonitrile + 0.1% formic acid, pH 3; gradient (min/%B) 0/0 2/0 15/100 22/100 22.1/0 26/0. Conditions: stereoisomer not certain.
For the compound `COc1ccc(-c2cc(=O)c3c(OC)c(OC)c(OC)c(OC)c3o2)cc1` [Tangeretin], the LC retention time is 13.7 min.

On to `O=C1CC(c2ccc(O)cc2)Oc2cc(O)cc(O)c21` (configuration not stated) [Naringenin], for which the LC retention time was 11.6 min.

For the compound `OCC1OC(Oc2cc3c(O)cc(O)cc3[o+]c2-c2ccc(O)c(O)c2)C(O)C(O)C1O` (configuration not stated) [Cyanidin 3-O-glucoside], the LC retention time is 7.85 min.

The nature of the next data set: RP, Agilent ZORBAX Eclipse XDB-C18, 100 × 2.1 mm, 1.8 µm, 50 °C, 0.4 mL/min, estimated dead time 0.55 min; A: water + 0.1% formic acid, pH 3; B: methanol + 0.1% formic acid, pH 3; gradient (min/%B) 0/2 10/100 14.5/100 14.51/2 16.5/2. Conditions: stereoisomer not certain.
In the case of `COc1ccc(-c2cc(=O)c3c(OC)c(OC)c(OC)c(OC)c3o2)cc1` [Tangeretin], the LC retention time is 8.59 min.

`OCC1OC(Oc2cc3c(O)cc(O)cc3[o+]c2-c2ccc(O)c(O)c2)C(O)C(O)C1O` (configuration not stated) [Cyanidin 3-O-glucoside]: the LC retention time is 3.52 min.

A further data set in a line: RP, Waters ACQUITY UPLC BEH C18, 100 × 2.1 mm, 1.7 µm, 65 °C, 0.4 mL/min, estimated dead time 0.55 min; A: water + 0.1% formic acid, pH 3; B: 80% acetonitrile + 20% acetone + 0.1% formic acid, pH 3; gradient (min/%B) 0/0 5/100 5.5/0 6/0. Conditions: stereoisomer not certain.
Regarding `COc1cc(C=O)cc(OC)c1O` [Syringaldehyde], the LC retention time is 2.11 min.

Take `O=C(O)/C=C/c1cccc(O)c1` [m-Coumaric acid]: the LC retention time was 2.14 min.

A short description of a further data set: RP, Waters ACQUITY UPLC BEH Shield RP18, 100 × 2.1 mm, 1.7 µm, 30 °C, 0.6 mL/min, estimated dead time 0.37 min; A: water + 0.1% formic acid, pH 3; B: acetonitrile + 0.1% formic acid, pH 3; gradient (min/%B) 0/0 2/0 7/10 22/95 22.1/0 26/0. Conditions: stereoisomer not certain.
For `COc1ccc(-c2cc(=O)c3c(OC)c(OC)c(OC)c(OC)c3o2)cc1` [Tangeretin], the LC retention time is 16.9 min.

For the compound `OCC1OC(Oc2cc3c(O)cc(O)cc3[o+]c2-c2ccc(O)c(O)c2)C(O)C(O)C1O` (configuration not stated) [Cyanidin 3-O-glucoside], the LC retention time was 10.8 min.

The nature of another data set: RP, Waters ACQUITY UPLC BEH Shield RP18, 150 × 2.1 mm, 1.7 µm, 40 °C, 0.4 mL/min, estimated dead time 0.83 min; A: water + 0.1% formic acid, pH 3; B: acetonitrile + 0.1% formic acid, pH 3; gradient (min/%B) 0/0 30/50 31/100 37/100 37.1/0. To be noted: stereoisomer not certain.
As for `O=c1cc(-c2ccc(O)c(O)c2)oc2cc(OC3OC(CO)C(O)C(O)C3O)cc(O)c12` (configuration not stated) [Luteolin 7-glucoside], the LC retention time is 12.4 min.

Consider `COc1ccc(-c2cc(=O)c3c(OC)c(OC)c(OC)c(OC)c3o2)cc1` [Tangeretin], for which the LC retention time was 26.7 min.

With `COc1cc(C=CC(=O)O)cc(OC)c1OC` [o-Methylsinapic acid], the LC retention time is 15.8 min.

As to `CC1OC(OCC2OC(Oc3cc4c(O)cc(O)cc4[o+]c3-c3ccc(O)c(O)c3)C(O)C(O)C2O)C(O)C(O)C1O` (configuration not stated) [Cyanidin-3-O-rutinoside], the LC retention time was 6.43 min.

As to `O=C1CC(c2ccc(O)cc2)Oc2cc(O)cc(O)c21` (configuration not stated) [Naringenin], the LC retention time is 21.1 min.

As to `OCC1OC(Oc2cc3c(O)cc(O)cc3[o+]c2-c2ccc(O)c(O)c2)C(O)C(O)C1O` (configuration not stated) [Cyanidin 3-O-glucoside], the LC retention time was 7.98 min.

Another data set in a line: RP, Agilent ZORBAX RRHD Eclipse Plus C18, 50 × 2.1 mm, 1.8 µm, 30 °C, 0.4 mL/min, estimated dead time 0.28 min; A: water + 0.1% formic acid, pH 3; B: acetonitrile + 0.1% formic acid, pH 3; gradient (min/%B) 0/1 5/10 8/25 9.1/99 10/99 12/1. Conditions: stereoisomer not certain.
For `O=C(O)/C=C/c1cccc(O)c1` [m-Coumaric acid], the LC retention time is 7.72 min.

The next data set can be described thus: RP, Agilent ZORBAX RRHD Eclipse Plus C18, 50 × 2.1 mm, 1.8 µm, 30 °C, 0.4 mL/min, estimated dead time 0.28 min; A: water + 0.1% formic acid, pH 3; B: acetonitrile + 0.1% formic acid, pH 3; gradient (min/%B) 0/1 5/10 8/25 9.1/99 10/99 12/99. Conditions: stereoisomer not certain.
`O=C(O)/C=C/c1cccc(O)c1` [m-Coumaric acid]: the LC retention time is 7.99 min.

A further data set in a line: RP, Agilent InfinityLab Poroshell 120 EC-C18, 100 × 3 mm, 2.7 µm, 25 °C, 0.4 mL/min, estimated dead time 1.1 min; A: water + 0.1% formic acid, pH 3; B: acetonitrile + 0.1% formic acid, pH 3; gradient (min/%B) 0/5 10/25 20/40 24/90 25/90 26/5 30/5. To be noted: stereoisomer not certain.
Turning to `COc1ccc(-c2cc(=O)c3c(OC)c(OC)c(OC)c(OC)c3o2)cc1` [Tangeretin], the LC retention time was 22.8 min.

On to `O=C1CC(c2ccc(O)cc2)Oc2cc(O)cc(O)c21` (configuration not stated) [Naringenin], for which the LC retention time was 16.3 min.

With `OCC1OC(Oc2cc3c(O)cc(O)cc3[o+]c2-c2ccc(O)c(O)c2)C(O)C(O)C1O` (configuration not stated) [Cyanidin 3-O-glucoside], the LC retention time was 5.65 min.

Another data set in a line: RP, Phenomenex Synergi Hydro-RP, 250 × 2 mm, 4 µm, 25 °C, 0.2 mL/min, estimated dead time 2.5 min; A: water + 0.1% formic acid, pH 3; B: acetonitrile + 0.1% formic acid, pH 3; gradient (min/%B) 0/0.5 7/0.5 12/12.5 25/16.3 47/35 48/65 50/65 50.1/0.5. Conditions: stereoisomer not certain.
For `O=C(O)CC(O)C(=O)O` (configuration not stated) [malic acid], the LC retention time was 3.87 min.

On to `COc1cc(-c2oc3cc(O)cc(O)c3c(=O)c2OC2OC(CO)C(O)C(O)C2O)ccc1O` (configuration not stated) [Isorhamnetin-3-O-glucoside], for which the LC retention time is 38.7 min.

Regarding `O=C(O)/C=C/c1cccc(O)c1` [m-Coumaric acid], the LC retention time was 33.9 min.

Another data set in a line: RP, Waters Atlantis T3, 100 × 2.1 mm, 3 µm, 40 °C, 0.3 mL/min, estimated dead time 0.73 min; A: water + 0.1% trifluoroacetic acid, pH 2; B: acetonitrile + 0.1% trifluoroacetic acid, pH 2; gradient (min/%B) 0/10 1/10 6/40 7/50 8/50 14/70 16/80 20/10 25/10. To be noted: stereoisomer not certain.
On to `O=c1cc(-c2ccc(O)c(O)c2)oc2cc(OC3OC(CO)C(O)C(O)C3O)cc(O)c12` (configuration not stated) [Luteolin 7-glucoside], for which the LC retention time is 7.79 min.

On to `COc1cc(-c2oc3cc(O)cc(O)c3c(=O)c2OC2OC(CO)C(O)C(O)C2O)ccc1O` (configuration not stated) [Isorhamnetin-3-O-glucoside], for which the LC retention time was 7.94 min.

Regarding `CC=C1C(OC2OC(CO)C(O)C(O)C2O)OC=C(C(=O)OC)C1CC(=O)OCCc1ccc(O)c(O)c1` (configuration not stated) [Oleuropein], the LC retention time was 8.38 min.

Regarding `O=C(O)/C=C/c1cccc(O)c1` [m-Coumaric acid], the LC retention time was 7.5 min.

For `O=C1CC(c2ccc(O)cc2)Oc2cc(O)cc(O)c21` (configuration not stated) [Naringenin], the LC retention time was 10.1 min.

Consider `OCC1OC(Oc2cc3c(O)cc(O)cc3[o+]c2-c2ccc(O)c(O)c2)C(O)C(O)C1O` (configuration not stated) [Cyanidin 3-O-glucoside], for which the LC retention time was 5.04 min.

On to `O=c1c(O)c(-c2ccc(OC3OC(CO)C(O)C(O)C3O)c(O)c2)oc2cc(O)cc(O)c12` (configuration not stated) [Quercetin 4-O-glucoside], for which the LC retention time was 7.94 min.
